Patent publication US9107909B2, “Materials and methods to enhance hematopoietic stem cells engraftment procedures” (priority 2008, dated 2015)
Entries after “also recorded” stand apart in the source; their conditions may differ.

Legend:
SKL cells = experiment: HSPC homing to bone marrow in vivo; set-up: species or system mouse; conditions: for increase in in vivo marrow homing efficiency: pulse-exposed grafts or purified SKL cells, 16 hours post-transplant; for SKL cells homed to the marrow: vs vehicle-treated or un-manipulated cells
Procedure: CD45.2 WBM was labeled with CFSE (Molecular Probes, Eugene, Oreg.) washed and treated on ice with either 1 microMolar dmPGE2 or vehicle. After treatment, cells were washed and 2×10^7 cells transplanted into lethally irradiated CD45.2 mice. After 16 hours, femurs and tibias were flushed, and a proportion of mouse marrow Lin^+ cells depleted using MACS microbeads (Miltenyi Biotech), stained with fluorochrome-conjugated-antibodies specific for biotin (lineage), c-kit (K), and Sca-1 (S) and the total number of CFSE^+ WBM (non lineage depleted), KL and SKL cells determined. For congenic homing studies, Lin^neg CD45.1 cells were treated on ice with 1 microMolar dmPGE2, vehicle, or PBS. After incubation, cells were washed and 2×10^6 cells transplanted into CD45.2 mice. After 16 hours, recipient bone marrow was harvested, lineage depleted, stained, and donor CD45.1 SKL cells determined. For competitive, head-to-head homing studies using sorted SKL cells, Lin^neg cells from CD45.2 and CD45.1 mice were FACS sorted, cells treated with either dmPGE2 or vehicle for 2 hours, washed and 3×10^4 CD45.1 (vehicle or dmPGE2 treated) plus 3×10^4 CD45.2 (dmPGE2 or vehicle treated) SKL cells transplanted into lethally irradiated F1 Hybrid mice. To evaluate the role of CXCR4 in homing studies, Lin^neg CD45.2 cells were treated on ice with vehicle or 1 microMolar dmPGE2 plus 10 microMolar AMD3100 (AnorMed Inc., Vancouver, BC, Canada) and 2×10^6 treated cells injected into lethally irradiated CD45.1 mice. Homed SKL cells were analyzed 16 hours post-transplant.
Irrespective of its cause a marrow niche is required for HSPC to self-renew and differentiate and it is very likely that only HSPC homing to these niches can provide long-term repopulation. Referring now to FIG. 3A, in order to assess HSPC homing, CFSE labeled whole bone marrow (WBM) CD45.2 cells were pulsed with dmPGE2 or vehicle for 2 hours on ice, washed and injected IV in lethally irradiated CD45.2 hosts. After 16 hours, total CFSE^+ cells homing to bone marrow as well as the number of homed events within the KL and SKL cell populations were quantified.
Highly purified SKL cells from both CD45.2 and CD45.1 mice were isolated by FACS sorting, treated with dmPGE2 or vehicle, and 3×10^4 vehicle-treated CD45.1 cells plus 3×10^4 dmPGE2-treated CD45.2 cells transplanted into CD45.1/CD45.2 mice. An additional cohort was concurrently transplanted with congenic strain and treatment groups were switched to test for any bias in strain homing. […] Although SKL cells are not a homogenous HSPC population, they are highly enriched for LTRC (Okada et al., 1992; Spangrude and Scollay, 1990).
To evaluate the role of CXCR4 in homing, Lineage^neg CD45.2 cells were treated with vehicle or 1 microMolardmPGE2 plus 10 microMolar AMD3100, 2×10^6 treated cells injected into lethally-irradiated CD45.1 mice and homed SKL cells recovered 16 hours post-transplant and analyzed by FACS. Referring now to FIG. 11, homing efficiency of vehicle and dmPGE2 treated cells to bone marrow in the absence and presence of 10 microMolar AMD3100. Cells were incubated with AMD3100 for 30 minutes prior to the homing assay.

[1] = tested on: Survivin in murine SKL cells; experiment: Intracellular Survivin by FACS, murine SKL cells; type: cell-based, mouse; conditions: vs control; for increase in Survivin protein, murine SKL cells: 24 hours post-pulse
From the text: (§1) All antibodies were purchased from BD Biosciences unless otherwise noted. For detection and sorting of murine KL and SKL cells, streptavidin conjugated with PE-Cy7 (to stain for biotinylated MACS lineage antibodies (Miltenyi Biotech, Auburn, Calif.)), c-kit-APC, Sca-1-PE or APC-Cy7, CD45. 1-PE and CD45.2-FITC were used. UCB CD34^+ cells were detected using anti-human-CD34-APC. For multilineage analysis, APC-Cy7-Mac-1, PE-Cy7-B-220 and APC-CD3 were used. EP receptors were detected with anti EP1, EP2, EP3 and EP4 rabbit IgG (Cayman Chemicals) and secondary staining with FITC-goat-anti-rabbit IgG (Southern Biotech, Birmingham, Ala.). CXCR4 expression was analyzed using streptavidin-PECy7, c-kit-APC, Sca-1-APC-Cy7, and CXCR4-PE. Apoptosis was measured with FITC-Annexin-V. For Survivin and active caspase-3 detection, cells were permeabilized and fixed using the CytoFix/CytoPerm kit (BD) and stained with anti-active-caspase-3-FITC Flow Kit (BD) or Survivin-PE (R&D Systems).
Expression of EP receptors, CXCR4 and Survivin Replicate Lin^neg cell samples from CD45.2 mice were stained for SKL and each of the EP receptors and surface receptor expression on KL and SKL cells determined by FACS. For human EP receptors, UCB was obtained from Wishard Hospital, Indianapolis, Ind. with Institutional Review Board approval. Mononuclear cells were isolated on Ficoll-Paque™ Plus (Amersham Biosciences) and CD34^+ cells positively selected with MACS microbeads (Miltenyi Biotech) (Fukuda and Pelus, 2001). Replicate cells were stained for CD34 and each of the EP receptors and surface expression determined by FACS. To evaluate CXCR4, Survivin and active caspase-3, Lin^neg cells or CD34^+ UCB were treated on ice with either 1 microMolar dmPGE2 or vehicle control for 2 hours, washed, and then cultured in RPMI-1640+10% FBS at 37° C. for 24 hours. Cells were stained for SKL (murine cells) and CXCR4, Survivin, and/or active caspase-3, as described above, and analyzed by FACS. […]

[2] = tested on: active caspase-3 in SKL cells; experiment: Active caspase-3 by FACS in SKL cells; type: cell-based, mouse
From the text: as §1
Expression of EP receptors, CXCR4 and Survivin Replicate Lin^neg cell samples from CD45.2 mice were stained for SKL and each of the EP receptors and surface receptor expression on KL and SKL cells determined by FACS. […] Replicate cells were stained for CD34 and each of the EP receptors and surface expression determined by FACS. […]

SMILES	increase in in vivo marrow homing efficiency (SKL cells) [fold]	SKL cells homed to the marrow (SKL cells; 16 hours)	increase in Survivin protein, murine SKL cells [1] [fold]	decrease in active caspase-3 ([2]; 24-72 hours post exposure)	percentage of CFSE+ cells homing to the marrow, total WBM cells (SKL cells; vs vehicle-treated cells, 16 hours)	Survivin mRNA ([1]; QRT-PCR)	active caspase-3 in SKL cells ([2]; 24, 48 and 72 hours post-exposure, vs control)
CCCCC[C@H](O)/C=C/[C@H]1[C@H](O)CC(=O)[C@@H]1C/C=C\CCCC(=O)O [PGE2, Prostaglandin E2]	~2	higher proportion	1.7	23-59%			
CCCCC(C)(C)[C@H](O)/C=C/[C@H]1[C@H](O)CC(=O)[C@@H]1C/C=C\CCCC(=O)O [dmPGE2, 16,16-dimethyl prostaglandin E2]	2	significantly more SKL cells homed; also recorded: significantly greater percentage of SKL cells	1.7		No difference	elevated Survivin mRNA	decreased active caspase-3
